According to paper PMC10689823, “Discovery of a Drug-like, Natural Product-Inspired DCAF11 Ligand Chemotype” (Nature Communications, 2023):
Values joined by “and” are separate entries in the source; they are usually repeats but may differ in a detail not shown here. Identical values can stand only once.

Columns and labels:
SIRT1 = target: T1, SIRT1 (Homo sapiens, UniProt Q96EB6); experiment: SIRT activity assay SIRT1; assay type: biochemical; conditions: SIRT1 activity in presence of 3 µM compound 42
T1 construct: purchased BPS Bioscience 50081 (assay kit)
T1 sequence (Q96EB6 whole entry): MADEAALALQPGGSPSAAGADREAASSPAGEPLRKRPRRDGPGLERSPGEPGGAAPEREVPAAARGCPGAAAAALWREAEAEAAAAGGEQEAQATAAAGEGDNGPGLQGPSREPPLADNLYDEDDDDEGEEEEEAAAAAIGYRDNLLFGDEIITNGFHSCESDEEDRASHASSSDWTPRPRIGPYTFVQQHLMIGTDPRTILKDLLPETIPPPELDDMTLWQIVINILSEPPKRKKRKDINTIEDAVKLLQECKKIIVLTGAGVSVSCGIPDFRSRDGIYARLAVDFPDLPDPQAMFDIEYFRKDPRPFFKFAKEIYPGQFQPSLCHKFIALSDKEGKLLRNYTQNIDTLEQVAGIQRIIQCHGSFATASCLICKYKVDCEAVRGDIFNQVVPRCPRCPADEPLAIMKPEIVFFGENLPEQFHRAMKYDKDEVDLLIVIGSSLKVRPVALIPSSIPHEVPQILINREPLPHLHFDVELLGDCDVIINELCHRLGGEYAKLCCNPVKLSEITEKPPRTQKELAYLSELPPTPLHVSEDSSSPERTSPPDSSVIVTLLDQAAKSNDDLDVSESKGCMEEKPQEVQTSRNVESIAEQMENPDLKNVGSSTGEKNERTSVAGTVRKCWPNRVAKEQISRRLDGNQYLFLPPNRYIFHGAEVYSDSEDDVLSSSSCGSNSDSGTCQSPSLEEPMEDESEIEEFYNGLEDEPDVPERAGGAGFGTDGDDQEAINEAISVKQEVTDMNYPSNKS
Description: (§1) In vitro enzymatic SIRT assays were performed by BPS Bioscience for SIRT1, SIRT2, SIRT3, SIRT5 and SIRT6 using the respective SIRT Fluorogenic Assay Kit (BPS Bioscience, catalog numbers 50081, 50087, 50088, 50085 and 50022). The compound was pre-incubated in for 30 min at room temperature in a mixture containing SIRT assay buffer, 5 μg BSA, SIRT enzyme. Afterwards, the enzymatic reaction was initiated by the addition of SIRT substrate to a final concentration of 10 μM. The enzymatic reaction proceeded for 30 min at 37 °C followed by the addition of 2 x SIRT Developer and incubation at room temperature for 15 min. Fluorescence intensity was measured at an ex/em 360/460 nm using a Tecan Infinite M1000 microplate reader.

[1] = test system: wildtype and mutant 482 kinases; experiment: Kinase profiling (SelectScreen); assay type: biochemical; conditions: 10 µM; panel of 482 wildtype and mutant kinases
Description: Compound 42 was profiled in duplicate at 10 µM against wildtype and mutant 482 kinases using the SelectScreen Kinase profiling services (ThermoFisher Scientific, USA) using enzymatic assays (Z’-Lyte and Adapta technology) or binding assays (LanthaScreen Eu kinase binding assays) (see https://www.thermofisher.com/de/de/home/products-and-services/services/custom-services/screening-and-profiling-services/selectscreen-profiling-service/selectscreen-kinase-profiling-service.html).

BRD2 = experiment: In-Cell Western for BRD2 levels in Hep G2 cells; assay type: cell-based; conditions: then 9 (10 μM, 4 h)
Description: Hep G2 cells were seeded in 96-well plates and incubated for 24 h. Compounds were added for the indicated time at the indicated concentration. Cells were then washed once with PBS and fixed with 4% paraformaldehyde for 30 min at room temperature. The fixed cells were permeabilized with 0.5 % Triton-X100 for 15 min followed by block with Intercept® Blocking Buffer (LI-COR Biosciences, 927-70001) for 1 h at room temperature. Primary antibodies for BRD2 (1:800) and Vinculin (1:2000) were diluted with LI-COR buffer and incubated with the cells at 4 °C overnight. Cells were washed with PBS-T, and the secondary antibodies conjugated to IRDye (1:1000, LI-COR Biosciences) were added to the cells for 1 h at room temperature. After washing the cells, the signal was recorded with the Odyssey® CLx Infrared Imaging System (LI-COR Biosciences) and the protein levels were analyzed by Image Studio (LI-COR Biosciences). BRD2 protein levels were normalized to the levels of reference protein vinculin.

SIRT2 = target: T2, SIRT2 (Homo sapiens, UniProt Q8IXJ6); experiment: SIRT activity assay SIRT2; assay type: biochemical; conditions: SIRT2 activity in presence of 3 µM compound 42
T2 construct: purchased BPS Bioscience 50087 (assay kit)
T2 sequence (Q8IXJ6 whole entry): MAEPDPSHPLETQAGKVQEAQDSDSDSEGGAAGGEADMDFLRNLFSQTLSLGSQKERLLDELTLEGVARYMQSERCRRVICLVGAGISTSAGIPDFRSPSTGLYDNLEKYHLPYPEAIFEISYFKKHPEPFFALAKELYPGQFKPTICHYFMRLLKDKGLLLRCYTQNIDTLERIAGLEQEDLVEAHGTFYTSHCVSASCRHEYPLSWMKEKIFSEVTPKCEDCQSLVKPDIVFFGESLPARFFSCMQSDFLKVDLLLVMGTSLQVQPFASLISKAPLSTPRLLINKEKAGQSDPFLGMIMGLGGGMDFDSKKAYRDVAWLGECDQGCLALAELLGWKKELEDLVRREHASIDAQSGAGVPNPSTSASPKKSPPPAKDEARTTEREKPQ
Description: as §1

SIRT5 = target: T3, SIRT5 (Homo sapiens, UniProt Q9NXA8); experiment: SIRT activity assay SIRT5; assay type: biochemical; conditions: SIRT5 activity in presence of 3 µM compound 42
T3 construct: purchased BPS Bioscience 50085 (assay kit)
T3 sequence (Q9NXA8 37-310): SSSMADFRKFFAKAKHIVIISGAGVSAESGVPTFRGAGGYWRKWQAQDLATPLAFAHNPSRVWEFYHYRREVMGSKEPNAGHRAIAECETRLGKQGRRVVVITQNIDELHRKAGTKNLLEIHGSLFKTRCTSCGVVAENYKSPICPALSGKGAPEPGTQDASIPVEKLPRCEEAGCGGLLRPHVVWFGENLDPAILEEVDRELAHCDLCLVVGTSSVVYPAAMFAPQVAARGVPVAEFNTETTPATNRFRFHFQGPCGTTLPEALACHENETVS
Description: as §1

SIRT3 = target: T4, SIRT3 (Homo sapiens, UniProt Q9NTG7); experiment: SIRT activity assay SIRT3; assay type: biochemical; conditions: SIRT3 activity in presence of 3 µM compound 42
T4 construct: purchased BPS Bioscience 50088 (assay kit)
T4 sequence (Q9NTG7 whole entry): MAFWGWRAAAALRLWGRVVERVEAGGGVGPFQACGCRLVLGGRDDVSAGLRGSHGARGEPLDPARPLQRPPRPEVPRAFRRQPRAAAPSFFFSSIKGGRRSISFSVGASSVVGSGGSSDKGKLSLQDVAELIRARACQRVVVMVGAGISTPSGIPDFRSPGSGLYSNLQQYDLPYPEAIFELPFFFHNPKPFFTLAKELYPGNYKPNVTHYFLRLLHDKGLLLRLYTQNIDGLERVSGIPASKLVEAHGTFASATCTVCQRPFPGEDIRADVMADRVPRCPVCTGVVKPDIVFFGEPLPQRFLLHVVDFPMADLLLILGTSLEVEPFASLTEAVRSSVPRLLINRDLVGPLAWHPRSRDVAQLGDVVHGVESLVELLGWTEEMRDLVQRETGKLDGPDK
Description: as §1

SIRT6 = target: T5, SIRT6 (Homo sapiens, UniProt Q8N6T7); experiment: SIRT activity assay SIRT6; assay type: biochemical; conditions: SIRT6 activity in presence of 3 µM compound 42
T5 construct: purchased BPS Bioscience 50022 (assay kit)
T5 sequence (Q8N6T7 whole entry): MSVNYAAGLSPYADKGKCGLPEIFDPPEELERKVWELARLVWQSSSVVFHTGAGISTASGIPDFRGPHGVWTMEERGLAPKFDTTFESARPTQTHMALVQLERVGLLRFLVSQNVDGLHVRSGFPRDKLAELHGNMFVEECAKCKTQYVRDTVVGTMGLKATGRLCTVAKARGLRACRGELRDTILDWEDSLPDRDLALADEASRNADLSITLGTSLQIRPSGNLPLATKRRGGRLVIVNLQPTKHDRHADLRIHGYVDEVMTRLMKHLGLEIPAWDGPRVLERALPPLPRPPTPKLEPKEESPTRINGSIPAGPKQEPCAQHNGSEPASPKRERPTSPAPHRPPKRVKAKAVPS
Description: as §1

SMILES: O=C1Nc2ccc(Br)cc2C1=Cc1cc(Br)c(OCCO)c(Br)c1 [Compound 42]
- Activity [%] (N=1) (SIRT1): 93%
- Activity [%] (N=2) (SIRT1): 97%
- number of wildtype kinases inhibited by more than 50 % [1]: seven
- BRD2/Vinculin intensity (relative to control group) (BRD2; Hep G2 cells, pretreated with compound at 30 μM 1 h, single repeats, Fig. 4h): 46.6052 and 52.1075 and 59.9094 and 63.5387
- Value (Mean ± SD): Relative BRD2 levels remaining in Hep G2 cells after treatment with compounds followed by treatment with 9, with DMSO control for normalization (BRD2; qualitative ICW assay, pretreated at 30 μM 1 h, Supplementary Table 1): 55.54 ± 6.61
- Activity [%] (N=1) (SIRT2): 104%
- Activity [%] (N=2) (SIRT2): 111%
- Activity [%] (N=1) (SIRT5): 95%
- Activity [%] (N=2) (SIRT5): 98%
- Activity [%] (N=1) (SIRT3): 67%
- Activity [%] (N=2) (SIRT3): 67%
- Activity [%] (N=1) (SIRT6): 87%
- Activity [%] (N=2) (SIRT6): 90%
